Data reported in US10925858B2, “S-nitrosoglutathione (GSNO) and GSNO reductase inhibitors for use in therapy” (MUSC FOUNDATION FOR RESEARCH DEVELOPMENT, priority 2017, dated 2021).

Legend:
[1] = system: cell adhesion molecules (ICAM-1 and VCAM-1); assay: Real-time PCR, mRNA expression of cell adhesion molecules in diabetic mice; format: in vivo; conditions: cortex and hippocampus, GSNO supplemented diabetic animals
Description: Male laca mice weighing between 28-32 g were procured from the Central Animal House, Panjab University, Chandigarh. The animals were acclimatized and were fed with standard pellet diet and water ad libitum. The experimental protocols were approved by the Institutional Ethics Committee and were conducted according to Indian National Science Academy (INSA) guidelines for the use and care of experimental animals. […] Animals were assessed weekly for development of diabetic encephalopathy in terms of memory deficits. […]
PCR Total RNA was extracted from microvessels obtained from brain tissue using TriReagent®. […] The concentration of RNA obtained was determined by 260/280 nm ratio using a Nanodrop™ Spectrophotometer (Nanodrop™ 1000, Thermo Scientific®, Waltham, USA). The integrity and overall quality of RNA was evaluated using agarose gel electrophoresis. […] The data obtained was analyzed by the LightCycler 480 Software, Version 1.5. […] Glyceraldehyde-3-phosphate dehydrogenase was used as the reference gene and the relative gene expression was determined using delta-delta Ct method as described by Pfaffl et al., (2002).

[2] = system: protein-associated S-nitrosothiols; assay: Assay for protein-associated S-nitrosylation (biotin-switch) in hBMVECs; format: cell-based, human; conditions: various concentrations, incubated 2 hr
Description: Cell culture: Primary human brain microvascular endothelial cells (hBMVECs) were purchased from Angio-Proteomie (Cat #: cAP-0002, Atlanta, Ga.). The cells were cultured in cell culture flasks or plates precoated with Quick Coating Solution (Angio-Proteomie; Cat #: cAP-01) and maintained in Endothelial Growth Medium (Angio-Proteomie; Cat #: cAP-02) at 37° C. under 5% CO2/95% air. When the cells were almost confluent, the medium was replaced with endothelial basal medium (Angio-Proteomie; Cat #: cAP-03) containing 0.5% fetal bovine serum (FBS; Life Technologies, Grand Island, N.Y.) about 8-12 hours before the experiment. No institutional approval was required for this study. The study was not pre-registered.
Assay for protein-associated S-nitrosylation: Protein S-Nitrosylation was analyzed by using biotin-switch method as described in our previous reports (Kim et al., 2014; Prasad et al., 2007). hBMVECs were lysed in 250 mM HEPES, pH 7.7, 1 mM EDTA, 0.1 mM neocuproine, 1% Nonidet P-40, 150 mM NaCl, 1 mM phenylmethanesulfonylfluoride, 20 mM methyl methanethiosulfonate (MMTS), 80 μM carmustine, protease inhibitor mixture (Sigma-Aldrich), and mixed with an equal volume of 25 mM HEPES, pH 7.7, 0.1 mM EDTA, 10 μM neocuproine, 5% SDS, 20 mM MMTS and incubated at 50° C. for 20 min. […] Following acetone precipitation, biotinylated (S-nitrosylated) proteins were analyzed by Western analysis. […]

## N[C@@H](CCC(=O)N[C@@H](CSN=O)C(=O)NCC(=O)O)C(=O)O [GSNO, S-nitrosoglutathione]
[1]
  mRNA expression of ICAM-1: comparable to control levels
[2]
  RhoA S-nitrosylation: increased
  cellular levels of protein-associated S-nitrosothiols: increased
